Measured values published in patent US9611267B2, “Substituted tricyclic compounds as FGFR inhibitors” (Incyte Corporation, priority 2012, dated 2017).

Tests used:
Assay type in all cases: biochemical
FGFR1 = FGFR1 (Homo sapiens (Human), UniProt P11362); test: FGFR enzymatic assay (FRET peptide phosphorylation), FGFR1; settings: FGFR1 enzyme 0.02 nM, ATP 210 μM
In short: (§1)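 IC50 values were obtained from variable-slope sigmoidal dose-response fitting of a FRET read-out of peptide phosphorylation. The buffer, described for FGFR3, was 50 mM HEPES pH 7.5 with MgCl2, EGTA, Tween-20 and DTT.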

FGFR2 = FGFR2 (Homo sapiens (Human), UniProt P21802); test: FGFR enzymatic assay (FRET peptide phosphorylation), FGFR2; settings: FGFR2 enzyme 0.01 nM, ATP 100 μM
In short: as §1

FGFR3 = FGFR3 (Homo sapiens (Human), UniProt P22607); test: FGFR enzymatic assay (FRET peptide phosphorylation), FGFR3; settings: FGFR3 enzyme (Millipore), ATP 140 μM
In short: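 After 5-10 min pre-incubation of FGFR3 with serially diluted compound in pH 7.5 HEPES/MgCl2/EGTA/DTT buffer, the reaction proceeded 1 hr at 25° C. Phosphorylated peptide was detected by FRET, and IC50 was fitted with a variable-slope sigmoid.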

Measured: IC50

FGFR1, sequence (P11362 22-822): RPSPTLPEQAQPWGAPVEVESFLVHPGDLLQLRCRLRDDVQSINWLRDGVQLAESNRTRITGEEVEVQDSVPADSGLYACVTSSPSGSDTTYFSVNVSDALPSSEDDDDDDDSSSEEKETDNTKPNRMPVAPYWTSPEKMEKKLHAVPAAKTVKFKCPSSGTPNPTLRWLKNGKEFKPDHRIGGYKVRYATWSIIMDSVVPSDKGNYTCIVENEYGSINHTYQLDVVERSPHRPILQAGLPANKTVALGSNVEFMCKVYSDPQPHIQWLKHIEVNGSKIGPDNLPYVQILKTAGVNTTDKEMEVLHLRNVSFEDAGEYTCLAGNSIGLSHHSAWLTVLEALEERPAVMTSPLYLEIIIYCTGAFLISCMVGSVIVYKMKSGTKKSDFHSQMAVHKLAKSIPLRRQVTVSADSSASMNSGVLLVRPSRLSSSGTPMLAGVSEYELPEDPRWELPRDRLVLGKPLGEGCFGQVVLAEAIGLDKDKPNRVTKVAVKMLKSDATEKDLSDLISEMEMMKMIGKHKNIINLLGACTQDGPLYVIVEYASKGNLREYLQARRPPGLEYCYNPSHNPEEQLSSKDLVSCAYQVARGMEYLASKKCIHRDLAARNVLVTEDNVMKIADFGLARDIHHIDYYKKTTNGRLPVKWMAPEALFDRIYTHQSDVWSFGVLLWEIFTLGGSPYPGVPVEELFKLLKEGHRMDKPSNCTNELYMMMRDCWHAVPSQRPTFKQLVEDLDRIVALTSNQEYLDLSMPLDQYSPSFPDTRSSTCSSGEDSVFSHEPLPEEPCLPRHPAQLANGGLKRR
FGFR3, sequence (P22607 23-806): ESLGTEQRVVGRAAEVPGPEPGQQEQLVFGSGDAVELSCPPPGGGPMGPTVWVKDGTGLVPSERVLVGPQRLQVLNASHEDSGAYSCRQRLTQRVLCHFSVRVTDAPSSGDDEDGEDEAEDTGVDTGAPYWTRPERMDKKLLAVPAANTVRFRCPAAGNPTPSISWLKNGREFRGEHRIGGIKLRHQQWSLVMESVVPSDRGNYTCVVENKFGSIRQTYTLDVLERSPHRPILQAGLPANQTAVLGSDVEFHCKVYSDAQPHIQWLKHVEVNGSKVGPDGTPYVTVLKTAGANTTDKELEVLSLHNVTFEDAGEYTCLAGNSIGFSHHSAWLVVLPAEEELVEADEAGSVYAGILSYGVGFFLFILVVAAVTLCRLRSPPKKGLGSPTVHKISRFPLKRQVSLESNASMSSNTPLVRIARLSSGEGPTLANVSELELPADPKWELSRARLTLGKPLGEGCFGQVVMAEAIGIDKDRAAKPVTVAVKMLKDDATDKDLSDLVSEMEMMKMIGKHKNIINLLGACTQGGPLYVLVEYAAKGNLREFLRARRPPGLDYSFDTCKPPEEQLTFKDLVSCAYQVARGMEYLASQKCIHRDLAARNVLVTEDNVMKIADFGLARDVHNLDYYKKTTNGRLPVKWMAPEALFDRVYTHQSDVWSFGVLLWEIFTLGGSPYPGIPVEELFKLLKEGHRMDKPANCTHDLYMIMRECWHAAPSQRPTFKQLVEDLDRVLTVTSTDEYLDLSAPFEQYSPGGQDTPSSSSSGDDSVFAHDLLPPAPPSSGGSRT
FGFR2, sequence (P21802 22-821): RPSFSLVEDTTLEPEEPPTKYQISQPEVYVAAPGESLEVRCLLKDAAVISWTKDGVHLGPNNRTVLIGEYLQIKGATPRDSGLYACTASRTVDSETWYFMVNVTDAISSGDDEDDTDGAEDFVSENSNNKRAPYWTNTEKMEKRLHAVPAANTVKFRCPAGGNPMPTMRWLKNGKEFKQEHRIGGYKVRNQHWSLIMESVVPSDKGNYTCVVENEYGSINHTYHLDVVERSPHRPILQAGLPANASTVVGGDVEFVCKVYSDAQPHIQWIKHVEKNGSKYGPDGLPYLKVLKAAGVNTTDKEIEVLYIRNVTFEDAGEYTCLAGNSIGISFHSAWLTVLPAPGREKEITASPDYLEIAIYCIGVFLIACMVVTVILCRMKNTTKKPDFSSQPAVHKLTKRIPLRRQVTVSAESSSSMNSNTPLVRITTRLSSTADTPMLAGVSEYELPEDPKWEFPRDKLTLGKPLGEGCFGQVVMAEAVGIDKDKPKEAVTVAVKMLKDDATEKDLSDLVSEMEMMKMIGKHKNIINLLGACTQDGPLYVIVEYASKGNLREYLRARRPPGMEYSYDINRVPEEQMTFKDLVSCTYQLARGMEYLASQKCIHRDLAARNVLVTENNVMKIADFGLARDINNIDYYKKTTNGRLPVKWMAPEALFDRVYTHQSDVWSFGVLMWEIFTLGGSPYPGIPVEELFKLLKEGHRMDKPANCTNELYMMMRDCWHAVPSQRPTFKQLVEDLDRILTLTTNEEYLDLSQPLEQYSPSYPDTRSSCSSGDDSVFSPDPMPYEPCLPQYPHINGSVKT

COc1cc(OC)c(F)c(N2Cc3cnc4c(c3N(c3ccc(Cl)cc3)C2=O)CC(=O)N4)c1F [Example 80, 1-(4-chlorophenyl)-3-(2,6-difluoro-3,5-dimethoxyphenyl)-3,4,7,9-tetrahydro-1H-pyrrolo[3′,2′:5,6]pyrido[4,3-d]pyrimidine-2,8-dione]
< 100 nM: all assays above

COc1cc(OC)c(F)c(N2Cc3cnc4c(c3N(c3ccc(Cl)cn3)C2=O)CC(=O)N4)c1F [Example 81, 1-(5-chloropyridin-2-yl)-3-(2,6-difluoro-3,5-dimethoxyphenyl)-3,4,7,9-tetrahydro-1H-pyrrolo[3′,2′:5,6]pyrido[4,3-d]pyrimidine-2,8-dione]
< 100 nM: all assays above

COc1cc(OC)c(F)c(N2Cc3cnc4[nH]ccc4c3N(c3cccc(C#N)c3)C2=O)c1F [Example 82, 3-[3-(2,6-difluoro-3,5-dimethoxyphenyl)-2-oxo-2,3,4,7-tetrahydro-1H-pyrrolo[3′,2′:5,6]pyrido[4,3-d]pyrimidin-1-yl]benzonitrile]
< 100 nM: all assays above

COc1cc(OC)c(F)c(N2Cc3cnc4[nH]ccc4c3N(c3cccnc3)C2=O)c1F [Example 83, 3-(2,6-difluoro-3,5-dimethoxyphenyl)-1-pyridin-3-yl-1,3,4,7-tetrahydro-2H-pyrrolo[3′,2′:5,6]pyrido[4,3-d]pyrimidin-2-one]
< 100 nM: all assays above

COc1cc(OC)c(F)c(N2Cc3cnc4[nH]ccc4c3N(c3cccc(Cl)c3F)C2=O)c1F [Example 84, 1-(3-chloro-2-fluorophenyl)-3-(2,6-difluoro-3,5-dimethoxyphenyl)-1,3,4,7-tetrahydro-2H-pyrrolo[3′,2′:5,6]pyrido[4,3-d]pyrimidin-2-one]
< 100 nM: all assays above

COc1cc(OC)c(F)c(N2Cc3cnc4[nH]ncc4c3N(c3cnn(C)c3)C2=O)c1F [Example 85, 3-(2,6-difluoro-3,5-dimethoxyphenyl)-1-(1-methyl-1H-pyrazol-4-yl)-1,3,4,7-tetrahydro-2H-pyrazolo[4′,3′:5,6]pyrido[4,3-d]pyrimidin-2-one]
< 100 nM: all assays above

COc1cc(OC)c(F)c(N2Cc3cnc4[nH]ncc4c3N(Cc3ccccn3)C2=O)c1F [Example 86, 3-(2,6-difluoro-3,5-dimethoxyphenyl)-1-(pyridin-2-ylmethyl)-1,3,4,7-tetrahydro-2H-pyrazolo[4′,3′:5,6]pyrido[4,3-d]pyrimidin-2-one]
< 100 nM: all assays above

COc1cc(OC)c(F)c(N2Cc3cnc4[nH]ncc4c3N(C3CC3)C2=O)c1F [Example 87, 1-cyclopropyl-3-(2,6-difluoro-3,5-dimethoxyphenyl)-1,3,4,7-tetrahydro-2H-pyrazolo[4′,3′:5,6]pyrido[4,3-d]pyrimidin-2-one]
< 100 nM: all assays above

COc1cc(OC)c(F)c(N2Cc3cnc4[nH]ncc4c3N([C@H]3CCCOC3)C2=O)c1F [Example 88, 3-(2,6-difluoro-3,5-dimethoxyphenyl)-1-[(3S)-tetrahydro-2H-pyran-3-yl]-1,3,4,7-tetrahydro-2H-pyrazolo[4′,3′:5,6]pyrido[4,3-d]pyrimidin-2-one]
< 100 nM: all assays above

COc1cc(OC)c(F)c(N2Cc3cnc4[nH]ncc4c3N([C@H]3CCOC3)C2=O)c1F [Example 89, 3-(2,6-difluoro-3,5-dimethoxyphenyl)-1-[(3S)-tetrahydrofuran-3-yl]-1,3,4,7-tetrahydro-2H-pyrazolo[4′,3′:5,6]pyrido[4,3-d]pyrimidin-2-one]
< 100 nM: all assays above

COc1cc(OC)c(F)c(N2Cc3cnc4[nH]ncc4c3N([C@@H]3CCOC3)C2=O)c1F [Example 90, 3-(2,6-difluoro-3,5-dimethoxyphenyl)-1-[(3R)-tetrahydrofuran-3-yl]-1,3,4,7-tetrahydro-2H-pyrazolo[4′,3′:5,6]pyrido[4,3-d]pyrimidin-2-one]
< 100 nM: all assays above

COc1cc(OC)c(F)c(N2Cc3cnc4[nH]ncc4c3N(C(C)C)C2=O)c1F [Example 91, 3-(2,6-difluoro-3,5-dimethoxyphenyl)-1-isopropyl-1,3,4,7-tetrahydro-2H-pyrazolo[4′,3′:5,6]pyrido[4,3-d]pyrimidin-2-one]
< 100 nM: all assays above

COc1cc(OC)c(F)c(N2Cc3cnc4[nH]ncc4c3N(c3ccccc3OC(F)(F)F)C2=O)c1F [Example 92, 3-(2,6-difluoro-3,5-dimethoxyphenyl)-1-[2-(trifluoromethoxy)phenyl]-1,3,4,7-tetrahydro-2H-pyrazolo[4′,3′:5,6]pyrido[4,3-d]pyrimidin-2-one]
< 100 nM: all assays above

COc1cc(OC)c(F)c(N2Cc3cnc4[nH]ncc4c3N(c3cccc(C#N)c3)C2=O)c1F [Example 93, 3-[3-(2,6-difluoro-3,5-dimethoxyphenyl)-2-oxo-2,3,4,7-tetrahydro-1H-pyrazolo[4′,3′:5,6]pyrido[4,3-d]pyrimidin-1-yl]benzonitrile]
< 100 nM: all assays above

COc1cc(OC)c(F)c(N2Cc3cnc4[nH]ncc4c3N(c3cccnc3)C2=O)c1F [Example 94, 3-(2,6-difluoro-3,5-dimethoxyphenyl)-1-pyridin-3-yl-1,3,4,7-tetrahydro-2H-pyrazolo[4′,3′:5,6]pyrido[4,3-d]pyrimidin-2-one]
< 100 nM: all assays above

COc1cc(OC)c(F)c(N2Cc3cnc4[nH]ncc4c3N(c3nnn(C)n3)C2=O)c1F [Example 95, 3-(2,6-difluoro-3,5-dimethoxyphenyl)-1-(2-methyl-2H-tetrazol-5-yl)-1,3,4,7-tetrahydro-2H-pyrazolo[4′,3′:5,6]pyrido[4,3-d]pyrimidin-2-one]
< 100 nM: all assays above

COc1cc(OC)c(F)c(N2Cc3cnc4[nH]ncc4c3N(c3cccc4cccnc34)C2=O)c1F [Example 96, 3-(2,6-difluoro-3,5-dimethoxyphenyl)-1-quinolin-8-yl-1,3,4,7-tetrahydro-2H-pyrazolo[4′,3′:5,6]pyrido[4,3-d]pyrimidin-2-one]
< 100 nM: all assays above

COc1cc(OC)c(F)c(N2Cc3cnc4[nH]nc(C)c4c3N(C3CC3)C2=O)c1F [Example 97, 1-cyclopropyl-3-(2,6-difluoro-3,5-dimethoxyphenyl)-9-methyl-1,3,4,7-tetrahydro-2H-pyrazolo[4′,3′:5,6]pyrido[4,3-d]pyrimidin-2-one]
< 100 nM: all assays above

CCN1C(=O)N(c2c(F)c(OC)cc(OC)c2F)Cc2cnc3[nH]nc(C)c3c21 [Example 98, 3-(2,6-difluoro-3,5-dimethoxyphenyl)-1-ethyl-9-methyl-1,3,4,7-tetrahydro-2H-pyrazolo[4′,3′:5,6]pyrido[4,3-d]pyrimidin-2-one]
< 100 nM: all assays above

COc1cc(OC)c(F)c(N2Cc3cnc4[nH]ncc4c3NC2=O)c1F [Example 99, 3-(2,6-difluoro-3,5-dimethoxyphenyl)-1,3,4,7-tetrahydro-2H-pyrazolo[4′,3′:5,6]pyrido[4,3-d]pyrimidin-2-one]
< 100 nM: all assays above

COc1cc(OC)c(F)c(N2Cc3cnc4[nH]nc(CCN5CCOCC5)c4c3N(C)C2=O)c1F [Example 100, 3-(2,6-difluoro-3,5-dimethoxyphenyl)-1-methyl-9-(2-morpholin-4-ylethyl)-1,3,4,7-tetrahydro-2H-pyrazolo[4′,3′:5,6]pyrido[4,3-d]pyrimidin-2-one]
< 100 nM: all assays above

COc1cc(OC)c(Cl)c(N2Cc3cnc4[nH]ncc4c3N(C3CC3)C2=O)c1F [Example 101, 3-(2-chloro-6-fluoro-3,5-dimethoxyphenyl)-1-cyclopropyl-1,3,4,7-tetrahydro-2H-pyrazolo[4′,3′:5,6]pyrido[4,3-d]pyrimidin-2-one]
< 100 nM: all assays above

COc1cc(OC)c(Cl)c(N2Cc3cnc4[nH]ncc4c3N(C3CCC3)C2=O)c1F [Example 102, 3-(2-chloro-6-fluoro-3,5-dimethoxyphenyl)-1-cyclobutyl-1,3,4,7-tetrahydro-2H-pyrazolo[4′,3′:5,6]pyrido[4,3-d]pyrimidin-2-one]
< 100 nM: all assays above

COc1cc(OC)c(F)c(N2Cc3cnc4[nH]ccc4c3NC2=O)c1F [Example 103, 3-(2,6-difluoro-3,5-dimethoxyphenyl)-1,3,4,7-tetrahydro-2H-pyrrolo[3′,2′:5,6]pyrido[4,3-d]pyrimidin-2-one]
< 100 nM: all assays above

COc1cc(OC)c(F)c(N2Cc3cnc4[nH]cc(C)c4c3N(C)C2=O)c1F [Example 104, 3-(2,6-difluoro-3,5-dimethoxyphenyl)-1,9-dimethyl-1,3,4,7-tetrahydro-2H-pyrrolo[3′,2′:5,6]pyrido[4,3-d]pyrimidin-2-one]
< 100 nM: all assays above
